Where a name gives a salt, the structure may show the parent alone.
What was measured:
[1] = target: T1, N-type Ca2+ channel (Homo sapiens, UniProt Q00975); experiment: Measurement of N-type Ca2+ channel blocking potencies in IMR-32 cells using the fluorescent Ca2+ indicator Indo-1; assay type: cell-based; settings: for IC50: K+-stimulated Ca2+ flux, 5 μM nitrendipine to block L-type channels
T1 construct: host or cells: IMR-32 cells, differentiated with dibutyryl cAMP and bromodeoxyuridine
Protocol: Measurement of N-type Ca^2+ Channel Blocking Potencies of Compounds in IMR-32 Cells Using the Fluorescent Ca^2+Indicator Indo-1
IMR-32 cells are a human tumoral cell line of neural origin. […] Calcium flux into these cells may be induced by stimulation with elevated potassium concentrations. The L-channel component of calcium flux may be blocked by adding 5 μM nitrendipine. The remaining component of calcium entry into the IMR-32 cells is due to calcium flux through N-type calcium channels. Intracellular calcium concentrations are measured using the fluorescent calcium indicator Indo-1. The effect of drug concentration on calcium uptake is studied.
The IMR-32 cell line was obtained from the American Type Culture Collection (Rockville, Md.). Cells were grown in Eagle's Minimum Essential Medium with Earle's salts supplemented with 10% fetal bovine serum, 2 mM L-Gln and antibiotic/antimycotic mixture (Gibco). […] After 7 to 13 days of differentiation, cells were detached using 0.5 mM EDTA and loaded with 5 μM Indo-1 acetoxymethyl ester (Molecular Probes, Eugene, Oreg.) at 30° C. for 45 minutes. Loaded cells were washed twice, resuspended (˜10^7 cells/mL) in assay buffer (10 mM HEPES/Tris pH 7.4 in Hank's Balanced Salt Solution without bicarbonate or phenol red containing 0.5% bovine serum albumin) and kept on ice until use. Fluorescence measurements were carried out in a Photon Technology International (PTI, South Brunswick, N.J.) Model RF-F3004 spectrofluorometer with dual emission monochromators using excitation at […] and emission at 400 and 490 nm. The instrument was equipped with a thermostated cuvette holder with stirring capabilities as well as with a computer-controlled pump which allowed for reagent addition during measurement. Instrument control and data collection was done by PTI's OSCAR software running on an IBM compatible computer. Different concentrations of the test compounds (60 μL in dimethyl sulfoxide) were added to 5.94 mL of assay buffer containing approximately 3×10^6 loaded cells, and 5 μM Nitrendipine (in […] EtOH) to block L-type Ca^2+ channels. Samples were incubated for 10 minutes at 30° C. and then aliquoted into three 10×10 mm disposable acrylic cuvettes. Emission signals at 400 and 490 nm were acquired from each cuvette at 30° C. for 50 seconds. At 20 seconds after the start of reading, cells were depolarized by the addition of 160 μL of stimulation solution (1 M KCl, 68 mM CaCl2) to the cuvette via the computer-controlled pump. Ratio of dual emission signals (400 nm/490 nm), which is proportional to intracellular Ca^2+ concentration, was plotted against time, and the difference between maximal response after stimulation and basal value (before stimulation) was determined. Values obtained in this way were plotted as a function of drug concentration. IC50 values of test compounds were calculated by fitting a four-parameter logistic function to the data using the least squares method.

[2] = test system: DBA/2 mice; experiment: Audiogenic seizure (anticonvulsant) test in DBA/2 mice; assay type: in vivo; settings: Mus musculus, intravenous, sound-induced tonic seizures, tested 15 or 45 minutes after injection, read-out: DBA/2 mice % Protection
Protocol: In vivo Biological Protocol:
A compound of the present invention was dissolved in water using 10% (weight/volume) Emulphor (GAF Corp., Wayne, N.J.) surfactant. Substances were administered by intravenous injection into the retro-orbital venous sinus. All testing was performed 15 minutes or 45 minutes after drug injection. All the male mice, 3-4 weeks old were obtained from Jackson Laboratories Bar Harbour, Me. Immediately before anticonvulsant testing, mice were placed upon a wire mesh, 4 inches square suspended from a steel rod. The square was slowly inverted through 180 degrees and mice observed for 30 seconds. Any mouse falling from the wire mesh was scored as ataxia.
Mice were placed into an enclosed acrylic plastic chamber (21 cm height, approximately 30 cm diameter) with a high-frequency speaker (4 cm diameter) in the center of the top lid. An audio signal generator (Protek model B-810) was used to produce a continuous sinusoidal tone that was swept linearly in frequency between 8 kHz and 16 kHz once each 10 msec. The average sound pressure level (SPL) during stimulation was approximately 100 dB at the floor of the chamber. Mice were placed within the chamber and allowed to acclimatize for 1 minute. DBA/2 mice in the vehicle-treated group responded to the sound stimulus (applied until tonic extension occurred, or for a maximum of 60 sec) with a characteristic seizure sequence consisting of wild running followed by clonic seizures, and later by tonic extension, and finally by respiratory arrest and death in 80% or more of the mice. In vehicle-treated mice, the entire sequence of seizures to respiratory arrest lasts approximately 15-20 seconds.
The incidence of all the seizure phases in the drug-treated and vehicle-treated mice was recorded, and the occurrence of tonic seizures were used for calculating anticonvulsant ED50 values by probit analysis. Mice were used only once for testing at each time and dose point.

T1 sequence (Q00975 whole entry): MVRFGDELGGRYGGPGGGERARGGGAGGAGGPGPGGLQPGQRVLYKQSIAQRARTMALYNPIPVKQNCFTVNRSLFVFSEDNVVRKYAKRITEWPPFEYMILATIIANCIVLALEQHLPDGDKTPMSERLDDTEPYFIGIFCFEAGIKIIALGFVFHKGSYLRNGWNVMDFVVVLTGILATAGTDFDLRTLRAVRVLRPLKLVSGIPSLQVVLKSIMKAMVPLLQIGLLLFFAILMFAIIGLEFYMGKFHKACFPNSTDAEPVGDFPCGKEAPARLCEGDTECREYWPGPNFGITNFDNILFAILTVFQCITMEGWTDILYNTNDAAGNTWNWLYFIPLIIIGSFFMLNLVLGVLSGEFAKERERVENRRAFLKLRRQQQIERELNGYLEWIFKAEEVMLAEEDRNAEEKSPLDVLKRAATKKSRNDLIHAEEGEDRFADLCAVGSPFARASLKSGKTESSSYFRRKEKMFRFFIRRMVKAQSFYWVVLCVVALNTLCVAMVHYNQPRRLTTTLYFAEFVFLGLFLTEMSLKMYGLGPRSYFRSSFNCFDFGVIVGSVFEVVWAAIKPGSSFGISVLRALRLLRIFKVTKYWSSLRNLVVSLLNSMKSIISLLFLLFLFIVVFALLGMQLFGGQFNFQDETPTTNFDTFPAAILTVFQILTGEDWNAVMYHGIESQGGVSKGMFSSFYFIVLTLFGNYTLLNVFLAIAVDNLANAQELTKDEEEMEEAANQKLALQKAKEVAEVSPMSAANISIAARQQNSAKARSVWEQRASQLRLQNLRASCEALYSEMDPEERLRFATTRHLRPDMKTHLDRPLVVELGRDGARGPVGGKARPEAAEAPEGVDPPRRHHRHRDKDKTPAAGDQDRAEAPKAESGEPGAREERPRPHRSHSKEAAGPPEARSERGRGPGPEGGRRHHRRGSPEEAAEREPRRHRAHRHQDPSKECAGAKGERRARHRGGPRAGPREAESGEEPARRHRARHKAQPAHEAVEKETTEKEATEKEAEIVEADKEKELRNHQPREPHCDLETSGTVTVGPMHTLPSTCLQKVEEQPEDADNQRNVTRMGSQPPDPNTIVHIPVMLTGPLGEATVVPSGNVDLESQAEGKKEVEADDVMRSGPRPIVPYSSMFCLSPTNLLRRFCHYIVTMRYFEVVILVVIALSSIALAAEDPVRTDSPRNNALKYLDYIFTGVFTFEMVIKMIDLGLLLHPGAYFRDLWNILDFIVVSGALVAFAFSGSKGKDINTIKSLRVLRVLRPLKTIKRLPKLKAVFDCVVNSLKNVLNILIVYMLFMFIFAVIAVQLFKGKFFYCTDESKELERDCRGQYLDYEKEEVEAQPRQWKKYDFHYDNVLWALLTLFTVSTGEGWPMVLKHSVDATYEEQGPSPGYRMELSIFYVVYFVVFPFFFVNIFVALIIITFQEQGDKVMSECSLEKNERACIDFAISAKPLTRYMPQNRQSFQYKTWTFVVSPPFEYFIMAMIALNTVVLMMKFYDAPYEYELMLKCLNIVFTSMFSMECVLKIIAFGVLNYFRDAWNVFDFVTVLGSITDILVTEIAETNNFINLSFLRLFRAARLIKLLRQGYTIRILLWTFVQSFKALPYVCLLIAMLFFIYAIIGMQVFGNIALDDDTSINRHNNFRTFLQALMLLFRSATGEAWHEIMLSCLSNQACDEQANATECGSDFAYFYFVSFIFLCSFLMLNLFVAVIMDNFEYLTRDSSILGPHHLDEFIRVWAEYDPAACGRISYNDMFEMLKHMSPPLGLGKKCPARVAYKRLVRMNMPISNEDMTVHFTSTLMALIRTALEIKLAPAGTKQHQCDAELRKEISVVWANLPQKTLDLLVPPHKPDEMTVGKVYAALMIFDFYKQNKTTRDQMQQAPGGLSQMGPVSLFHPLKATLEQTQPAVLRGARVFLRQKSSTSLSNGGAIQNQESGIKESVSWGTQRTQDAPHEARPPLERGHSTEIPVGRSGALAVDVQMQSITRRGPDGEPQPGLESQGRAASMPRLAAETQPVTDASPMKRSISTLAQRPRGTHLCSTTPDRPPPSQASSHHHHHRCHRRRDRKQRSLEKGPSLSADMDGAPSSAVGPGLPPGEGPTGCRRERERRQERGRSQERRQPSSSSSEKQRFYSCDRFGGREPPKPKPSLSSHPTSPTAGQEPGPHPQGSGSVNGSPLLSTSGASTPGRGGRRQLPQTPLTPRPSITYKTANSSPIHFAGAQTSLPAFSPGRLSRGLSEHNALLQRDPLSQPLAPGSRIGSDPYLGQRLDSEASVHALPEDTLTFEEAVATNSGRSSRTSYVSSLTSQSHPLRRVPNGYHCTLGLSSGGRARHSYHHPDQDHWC
T1 sequence (P54289 25-956 partner limits assumed): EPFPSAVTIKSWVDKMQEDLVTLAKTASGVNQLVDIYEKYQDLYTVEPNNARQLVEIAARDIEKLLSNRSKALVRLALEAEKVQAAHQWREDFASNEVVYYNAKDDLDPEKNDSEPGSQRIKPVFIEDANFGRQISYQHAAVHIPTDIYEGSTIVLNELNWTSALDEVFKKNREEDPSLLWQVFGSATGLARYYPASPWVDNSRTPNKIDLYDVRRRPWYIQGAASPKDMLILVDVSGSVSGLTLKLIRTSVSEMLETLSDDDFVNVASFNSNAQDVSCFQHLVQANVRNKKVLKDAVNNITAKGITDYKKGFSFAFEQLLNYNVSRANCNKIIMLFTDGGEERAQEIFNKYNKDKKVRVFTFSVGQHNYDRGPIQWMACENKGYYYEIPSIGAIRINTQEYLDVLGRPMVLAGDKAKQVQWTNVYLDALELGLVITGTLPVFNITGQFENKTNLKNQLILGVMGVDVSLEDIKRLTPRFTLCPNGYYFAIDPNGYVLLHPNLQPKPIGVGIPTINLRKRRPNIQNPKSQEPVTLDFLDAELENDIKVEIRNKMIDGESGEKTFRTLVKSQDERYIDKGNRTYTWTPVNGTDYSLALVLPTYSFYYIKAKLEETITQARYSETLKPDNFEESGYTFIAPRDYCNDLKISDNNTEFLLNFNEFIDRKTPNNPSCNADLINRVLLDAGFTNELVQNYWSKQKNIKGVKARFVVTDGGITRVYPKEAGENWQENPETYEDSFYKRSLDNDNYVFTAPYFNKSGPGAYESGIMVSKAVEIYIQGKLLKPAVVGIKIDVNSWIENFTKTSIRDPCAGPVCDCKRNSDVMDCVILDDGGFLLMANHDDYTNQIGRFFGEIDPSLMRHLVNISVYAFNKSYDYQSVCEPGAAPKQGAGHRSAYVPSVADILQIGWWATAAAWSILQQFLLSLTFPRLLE
T1 sequence (P54289 957-1103 partner limits assumed): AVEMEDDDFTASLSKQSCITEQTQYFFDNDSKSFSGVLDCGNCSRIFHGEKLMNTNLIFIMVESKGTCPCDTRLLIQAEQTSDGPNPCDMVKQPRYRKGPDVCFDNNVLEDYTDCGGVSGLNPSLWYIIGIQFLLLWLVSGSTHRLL
T1 sequence (Q02641 whole entry partner): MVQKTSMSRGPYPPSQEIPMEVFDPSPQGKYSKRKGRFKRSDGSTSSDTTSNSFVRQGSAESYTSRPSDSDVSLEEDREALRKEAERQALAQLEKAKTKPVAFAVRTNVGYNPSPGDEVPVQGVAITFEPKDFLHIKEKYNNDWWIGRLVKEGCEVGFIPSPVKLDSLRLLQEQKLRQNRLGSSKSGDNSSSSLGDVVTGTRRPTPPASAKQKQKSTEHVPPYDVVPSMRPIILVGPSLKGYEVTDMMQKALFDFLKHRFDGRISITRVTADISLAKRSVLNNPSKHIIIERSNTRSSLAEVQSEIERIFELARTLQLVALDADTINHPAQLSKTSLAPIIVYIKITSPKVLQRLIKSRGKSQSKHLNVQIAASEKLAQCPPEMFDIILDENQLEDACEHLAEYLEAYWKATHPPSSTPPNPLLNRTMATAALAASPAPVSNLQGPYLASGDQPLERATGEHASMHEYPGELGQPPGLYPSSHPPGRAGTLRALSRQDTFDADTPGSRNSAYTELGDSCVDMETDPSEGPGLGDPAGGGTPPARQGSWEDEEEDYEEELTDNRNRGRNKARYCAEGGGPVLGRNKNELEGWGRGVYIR

Row | IC50 [1] | melting point | Structure (SMILES) | also measured
1 | 0.69 µM | 71 °C | CC(C)=CCN(CCNC(=O)[C@H](CC(C)C)NC(=O)N1CCCCCC1)c1ccc(OCc2ccccc2)cc1 [Example 3, (S)-Azepane-1-carboxylic acid (1-{2-[(4-benzyloxy-phenyl)-(3-methyl-but-2-enyl)-amino]-ethylcarbamoyl}-3-methyl-butyl)-amide] | 
2 | 0.75 µM | 48 to 52 °C | CC(C)=CCN(CCCNC(=O)[C@H](CC(C)C)NC(=O)N1CCCCCC1)c1ccc(OCc2ccccc2)cc1 [Example 4, (S)-Azepane-1-carboxylic acid (1-{3-[(4-benzyloxy-phenyl)-(3-methyl-but-2-enyl)-amino]-propylcarbamoyl}-3-methyl-butyl)-amide] | 
3 | 2.4 µM |  | CC(C)=CCN(c1ccc(OCc2ccccc2)cc1)C1CCN(C(=O)[C@@H](N)CC(C)C)CC1 [Example 20, (S)-2-Amino-1-{4-[(4-benzyloxy-phenyl)-(3-methyl-but-2-enyl)-amino]-piperidin-1-yl}-4-methyl-pentan-1-one] | responders at 10 mg/kg ([2]; 10 mg/kg): 100%

Further lines, the compound ahead of its results:

Row | Structure (SMILES) | IC50 [1] | melting point | also measured
4 | CC(C)=CCN(c1ccc(OCc2ccccc2)cc1)C1CCN(C(=O)[C@H](CC(C)C)NC(=O)N2CCCCCC2)CC1 (as salt: hydrochloride) [Example 5, (S)-Azepane-1-carboxylic acid (1-{4-[(4-benzyloxy-phenyl)-(3-methyl-but-2-enyl)-amino]-piperidine-1-carbonyl}-3-methyl-butyl)-amide hydrochloride salt] |  | 125 to 126 °C | 
5 | CC(C)C[C@H](NC(=O)N1CCCCCC1)C(=O)NCCN(c1ccc(OCc2ccccc2)cc1)C1C=CCCC1 (stereo partly drawn) [Example 6, (S)-Azepane-1-carboxylic acid (1-{2-[(4-benzyloxy-phenyl)-cyclohex-2-enyl-amino]-ethylcarbamoyl}-3-methyl-butyl)-amide] | 0.84 µM | 79 to 80 °C | 
6 | CC(C)C[C@H](NC(=O)N1CCCCCC1)C(=O)NCCN(Cc1ccccc1)c1ccc(OCc2ccccc2)cc1 [Example 7, (S)-Azepane-1-carboxylic acid (1-{2-[benzyl-(4-benzyloxy-phenyl)-amino]-ethylcarbamoyl}-3-methyl-butyl)-amide] | 1.9 µM | 65 to 66 °C | 
7 | CC(C)=CCN(CC(C)(C)NC(=O)[C@H](CC(C)C)N(C)CC=C(C)C)c1ccc(OCc2ccccc2)cc1 [Example 10, (S)-4-Methyl-2-[methyl-(3-methyl-but-2-enyl)-amino]-pentanoic acid {2-[(4-benzyloxy-phenyl)-(3-methyl-but-2-enyl)-amino]-1,1-dimethyl-ethyl}-amide] |  |  | inhibition at 1 µM ([1]; 1 μM compound, 5 μM nitrendipine, read-out: IMR 32 % of Blockade @ 1 μM): 54%; inhibition at 10 µM ([1]; 10 μM compound, 5 μM nitrendipine, read-out: IMR 32 % of Blockade @ 10 μM): 82%; responders at 30 mg/kg [2]: 80%
8 | CC(C)CCN(c1ccc(N)cc1)C1CCN(C(=O)[C@H](CC(C)C)NC(=O)N2CCCCCC2)CC1 [Example 35, (S)-Azepane-1-carboxylic acid (1-{4-[(4-amino-phenyl)-(3-methyl-butyl)-amino]-piperidine-1-carbonyl}-3-methyl-butyl)-amide] | 2.2 µM |  | responders at 30 mg/kg [2]: 20%

From patent US6495715B2, “Calcium channel blockers” (Warner-Lambert Company, priority 1997, dated 2002)
